Measured values taken from US20230340011A1 (Asteroid Therapeutics, priority 2022, published 2023).

Tests used:
SREBP-2 = SREBP-2 (Homo sapiens (Human), UniProt Q12772); experiment: In vitro assay SREBP-2: PathHunter U2OS SREBP-2 Nuclear Translocation Cell Line, U18666A-stimulated; format: cell-based; conditions: PathHunter U2OS SREBP-2 nuclear translocation cells, U18666A 10 μM, overnight (16 hours)
LXRβ = LXRβ (Homo sapiens (Human), UniProt P55055); experiment: In vitro assay LXRβ: PathHunter NHR CHO cells, LXRβ / Steroid Receptor Co-activator Peptide enzyme fragment complementation; format: cell-based; conditions: PathHunter NHR CHO cells, full-length human LXRβ and SRCP, chemiluminescent signal; read-out: LXRβ PPI
Summary of the method: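 Co-activator recruitment measured by chemiluminescence after signal generation. The CHO line carries full-length human LXRβ tagged with ProLink and an SRCP–enzyme acceptor fusion in the nucleus; cells sat overnight at 37° C before testing, in charcoal-dextran filtered serum medium with 1% final vehicle.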

Sequence of LXRβ (P55055 whole entry, the tested form may be a part): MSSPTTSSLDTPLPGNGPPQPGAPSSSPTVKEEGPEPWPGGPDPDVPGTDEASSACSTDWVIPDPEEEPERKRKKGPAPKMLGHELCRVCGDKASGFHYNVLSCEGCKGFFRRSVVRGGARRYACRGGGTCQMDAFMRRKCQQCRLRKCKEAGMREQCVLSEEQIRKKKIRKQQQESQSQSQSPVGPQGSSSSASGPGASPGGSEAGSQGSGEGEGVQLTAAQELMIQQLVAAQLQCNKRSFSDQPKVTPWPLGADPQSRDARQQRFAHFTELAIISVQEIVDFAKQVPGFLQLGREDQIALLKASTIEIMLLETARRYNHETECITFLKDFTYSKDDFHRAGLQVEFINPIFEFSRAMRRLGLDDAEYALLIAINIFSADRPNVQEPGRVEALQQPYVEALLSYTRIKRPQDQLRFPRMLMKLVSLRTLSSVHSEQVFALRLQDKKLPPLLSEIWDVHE

SMILES	IC50 (SREBP-2)	EC50 (LXRβ)
C[C@H](CCC(=O)N1CCC[C@H]1C)[C@H]1CC[C@H]2[C@@H]3CC=C4C[C@@H](O)CC[C@]4(C)[C@H]3CC[C@]12C [Example 113, (R)-4-((3S,8S,9S,10R,13R,14S,17R)-3-hydroxy-10,13-dimethyl-2,3,4,7,8,9,10,11,12,13,14,15,16,17-tetradecahydro-1H-cyclopenta[a]phenanthren-17-yl)-1-((R)-2-methylpyrrolidin-1-yl)pentan-1-one]	< 0.25 µM	0.25 to 1 µM
C[C@H](CCC(=O)N1CCN(C(=O)N(C)CC2CC2)C[C@@H]1C)[C@H]1CC[C@H]2[C@@H]3CC=C4C[C@@H](O)CC[C@]4(C)[C@H]3CC[C@]12C [Example 637, (S)—N-(cyclopropylmethyl)-4-((R)-4-((3S,8S,9S,10R,13R,14S,17R)-3-hydroxy-10,13-dimethyl-2,3,4,7,8,9,10,11,12,13,14,15,16,17-tetradecahydro-1H-cyclopenta[a]phenanthren-17-yl)pentanoyl)-N,3-dimethylpiperazine-1-carboxamide]	< 0.25 µM	> 10 µM
C[C@H](CCC(=O)N1CC=C(C2CC2)CC1)[C@H]1CC[C@H]2[C@@H]3CC=C4C[C@@H](O)CC[C@]4(C)[C@H]3CC[C@]12C [Example 193A, (R)-1-(4-cyclopropyl-3,6-dihydropyridin-1(2H)-yl)-4-((3S,8S,9S,10R,13R,14S,17R)-3-hydroxy-10,13-dimethyl-2,3,4,7,8,9,10,11,12,13,14,15,16,17-tetradecahydro-1H-cyclopenta[a]phenanthren-17-yl)pentan-1-one]	< 0.25 µM	0.25 to 1 µM
Cc1cc(CC[C@@H](C)[C@H]2CC[C@H]3[C@@H]4CC=C5C[C@@H](O)CC[C@]5(C)[C@H]4CC[C@]23C)ncn1 [Example 189, (1R,3aS,3bS,7S,9aR,9bS,11aR)-9a,11a-dimethyl-1-[(2R)-4-(6-methylpyrimidin-4-yl)butan-2-yl]-1H,2H,3H,3aH,3bH,4H,6H,7H,8H,9H,9aH,9bH,10H,11H,11aH-cyclopenta[a]phenanthren-7-ol]	< 0.25 µM	1 to 10 µM
CSC(=O)N1CCN(C(=O)CC[C@@H](C)[C@H]2CC[C@H]3[C@@H]4CC=C5C[C@@H](O)CC[C@]5(C)[C@H]4CC[C@]23C)CC1 [Example 551, (4R)-4-[(1R,3aS,3bS,7S,9aR,9bS,11aR)-7-hydroxy-9a,11a-dimethyl-1H,2H,3H,3aH,3bH,4H,6H,7H,8H,9H,9aH,9bH,10H,11H,11aH-cyclopenta[a]phenanthren-1-yl]-1-{4-[(methylsulfanyl)carbonyl]piperazin-1-yl}pentan-1-one]	< 0.25 µM	> 10 µM
Cc1cncnc1N1CCN(C(=O)CC[C@@H](C)[C@H]2CC[C@H]3[C@@H]4CC=C5C[C@@H](O)CC[C@]5(C)[C@H]4CC[C@]23C)CC1 [Example 508, (R)-4-((3S,8S,9S,10R,13R,14S,17R)-3-hydroxy-10,13-dimethyl-2,3,4,7,8,9,10,11,12,13,14,15,16,17-tetradecahydro-1H-cyclopenta[a]phenanthren-17-yl)-1-(4-(5-methylpyrimidin-4-yl)piperazin-1-yl)pentan-1-one]	< 0.25 µM	> 10 µM
CC[C@]1(O)CC[C@@]2(C)C(=CC[C@H]3[C@@H]4CC[C@H]([C@H](C)CCC(=O)N5CCN(C(=O)OC)CC5)[C@@]4(C)CC[C@@H]32)C1 [Example 284, methyl 4-[(4R)-4-[(1R,3aS,3bS,7S,9aR,9bS,11aR)-7-ethyl-7-hydroxy-9a,11a-dimethyl-1H,2H,3H,3aH,3bH,4H,6H,7H,8H,9H,9aH,9bH,10H,11H,11aH-cyclopenta[a]phenanthren-1-yl]pentanoyl]piperazine-1-carboxylate]	1 to 10 µM	> 10 µM
C[C@H](CCC(=O)N1CCN(c2ccncn2)[C@@H](C)C1)[C@H]1CC[C@H]2[C@@H]3CC=C4C[C@@H](O)CC[C@]4(C)[C@H]3CC[C@]12C [Example 575, (4R)-4-[(1R,3aS,3bS,7S,9aR,9bS,11aR)-7-hydroxy-9a,11a-dimethyl-1H,2H,3H,3aH,3bH,4H,6H,7H,8H,9H,9aH,9bH,10H,11H,11aH-cyclopenta[a]phenanthren-1-yl]-1-[(3S)-3-methyl-4-(pyrimidin-4-yl)piperazin-1-yl]pentan-1-one]	< 0.25 µM	> 10 µM
C[C@H](CCc1cccc(C(F)(F)F)n1)[C@H]1CC[C@H]2[C@@H]3CC=C4C[C@@H](O)CC[C@]4(C)[C@H]3CC[C@]12C [Example 166, (3S,8S,9S,10R,13R,14S,17R)-10,13-dimethyl-17-((R)-4-(6-(trifluoromethyl)pyridin-2-yl)butan-2-yl)-2,3,4,7,8,9,10,11,12,13,14,15,16,17-tetradecahydro-1H-cyclopenta[a]phenanthren-3-ol]	0.25 to 1 µM	> 10 µM
CON(C(=O)CC[C@@H](C)[C@H]1CC[C@H]2[C@@H]3CC=C4C[C@@H](O)CC[C@]4(C)[C@H]3CC[C@]12C)[C@H](C)CO [Example 71, (R)-4-((3S,8S,9S,10R,13R,14S,17R)-3-hydroxy-10,13-dimethyl-2,3,4,7,8,9,10,11,12,13,14,15,16,17-tetradecahydro-1H-cyclopenta[a]phenanthren-17-yl)-N—((R)-1-hydroxypropan-2-yl)-N-methoxypentanamide]	0.25 to 1 µM	0.25 to 1 µM
Cc1ccnc(N2CCN(C(=O)CC[C@@H](C)[C@H]3CC[C@H]4[C@@H]5CC=C6C[C@@H](O)CC[C@]6(C)[C@H]5CC[C@]34C)CC2)c1 [Example 658, (R)-4-((3S,8S,9S,10R,13R,14S,17R)-3-hydroxy-10,13-dimethyl-2,3,4,7,8,9,10,11,12,13,14,15,16,17-tetradecahydro-1H-cyclopenta[a]phenanthren-17-yl)-1-(4-(4-methylpyridin-2-yl)piperazin-1-yl)pentan-1-one]	< 0.25 µM	> 10 µM
CC(=O)N1CCCN(C(=O)CC[C@@H](C)[C@H]2CC[C@H]3[C@@H]4CC=C5C[C@@H](O)CC[C@]5(C)[C@H]4CC[C@]23C)CC1 [Example 317, (R)-1-(4-acetyl-1,4-diazepan-1-yl)-4-((3S,8S,9S,10R,13R,14S,17R)-3-hydroxy-10,13-dimethyl-2,3,4,7,8,9,10,11,12,13,14,15,16,17-tetradecahydro-1H-cyclopenta[a]phenanthren-17-yl)pentan-1-one]	< 0.25 µM	> 10 µM
COc1ncc(OC)c(N2CCN(C(=O)CC[C@@H](C)[C@H]3CC[C@H]4[C@@H]5CC=C6C[C@@H](O)CC[C@]6(C)[C@H]5CC[C@]34C)CC2)n1 [Example 617, (R)-1-(4-(2,5-dimethoxypyrimidin-4-yl)piperazin-1-yl)-4-((3S,8S,9S,10R,13R,14S,17R)-3-hydroxy-10,13-dimethyl-2,3,4,7,8,9,10,11,12,13,14,15,16,17-tetradecahydro-1H-cyclopenta[a]phenanthren-17-yl)pentan-1-one]	< 0.25 µM	> 10 µM
C[C@@H]1CCN(C(=O)CC[C@@H](C)[C@H]2CC[C@H]3[C@@H]4CC=C5C[C@@H](O)CC[C@]5(C)[C@H]4CC[C@]23C)C1 [Example 115, (R)-4-((3S,8S,9S,10R,13R,14S,17R)-3-hydroxy-10,13-dimethyl-2,3,4,7,8,9,10,11,12,13,14,15,16,17-tetradecahydro-1H-cyclopenta[a]phenanthren-17-yl)-1-((R)-3-methylpyrrolidin-1-yl)pentan-1-one]	< 0.25 µM	0.25 to 1 µM
